Experimental data published in patent US7989469B2, “Certain chemical entities, compositions, and methods” (Cytokinetics, Incorporated, priority 2008, dated 2011).

These compounds were tested on rabbit skeletal muscle myofibril preparations (approximately 90% fast fibers) (assay: Activation of fast skeletal muscle fibers: enzymatic activity of myofibril preparations (PUMA assay system)). Conditions: detergent treated myofibrils at pCa25%, 500 μM ATP; cells marked †: Mean value.
Format: biochemical
Parameters: unit not given here
Text: Fast fiber activators were identified by measuring the enzymatic activity of muscle myofibril preparations using the proprietary PUMA™ (see, e.g., U.S. Pat. Nos. 6,410,254, 6,743,599, 7,202,051, and 7,378,254) assay system. Myofibril preparations consisted of rabbit skeletal muscle (approximately 90% fast fibers) that had been treated with a detergen (triton X-100) to remove cellular membranes and then homogenized. This preparation retained all of the sarcomeric components in a native conformation and the enzymatic activity was still regulated by calcium. Compounds were tested using a myofibril suspension and a level of calcium sufficient to increase enzymatic activity of the myofibrils to 25% of their maximal rate (termed pCa25%). Enzymatic activity was tracked via a kinetic assay with a UV absorption readout. Hits were identified as compounds that increased the rate of enzymatic activity by greater than 40% at 40 μM. Myofibril preparations are calcium regulated and were screened at a level of calcium sufficient to produce a 25% increase in enzymatic rate. Detergent treated myofibrils were incubated with 500 μM ATP and 40 μM compound and a kinetic read of UV absorbance performed. Data was normalized to control wells.
With `CC[C@H](n1c(O)nc2ncc(Cl)c(-c3ccc(F)cc3)c21)C(C)(C)O` [1-((1S)-1-ethyl-2-hydroxy-2-methylpropyl)-6-chloro-7-(4-fluorophenyl)imidazo[4,5-b]pyridin-2-ol] the “AC1.4 Median” value was 0.320†. In the case of `CC[C@@H](CO)n1c(O)nc2ncc(Cl)c(-c3ccc(Cl)s3)c21` [1-((1S)-1-ethyl-2-hydroxyethyl)-6-chloro-7-(5-chloro(2-thienyl))imidazo[4,5-b]pyridin-2-ol], the “AC1.4 Median” value is reported as 0.178†. In the case of `CC(C)C[C@@H](CO)n1c(O)nc2ncc(Cl)c(-c3ccc(F)cc3)c21` [1-[(1S)-2-hydroxy-1-(2-methylpropyl)ethyl]-6-chloro-7-(4-fluorophenyl)imidazo[4,5-b]pyridin-2-ol], the “AC1.4 Median” value is reported as 0.072†. In the case of “6-chloro-1-(ethylpropyl)-7-(4-methylphenyl)imidazo[4,5-b]pyridin-2-ol”, the “AC1.4 Median” value is reported as 0.336†. In the case of `CCC(CC)n1c(O)nc2ncc(Cl)c(-c3ccc(C#N)c(F)c3)c21` [4-(6-chloro-2-hydroxy-1-(pentan-3-yl)-1H-imidazo[4,5-b]pyridin-7-yl)-2-fluorobenzonitrile], the “AC1.4 Median” value is reported as 0.458†. In the case of “6-chloro-1-(ethylpropyl)-7-(5-fluoro(2-pyridyl))imidazo[4,5-b]pyridin-2-ol”, the “AC1.4 Median” value is reported as 0.268†. With `CCC(CC)n1c(O)nc2ncc(Cl)c(-c3cccs3)c21` [6-chloro-1-(ethylpropyl)-7-(2-thienyl)imidazo[4,5-b]pyridin-2-ol] the “AC1.4 Median” value was 0.136†. In the case of “6-chloro-7-(4-chloro-3-fluorophenyl)-1-(ethylpropyl)imidazo[4,5-b]pyridin-2-ol”, the “AC1.4 Median” value is reported as 0.116†. In the case of “6-chloro-1-(ethylpropyl)-7-(6-methoxy(2-pyridyl))imidazo[4,5-b]pyridin-2-ol”, the “AC1.4 Median” value is reported as 0.562†. For `CCC(CC)n1c(O)nc2ncc(Cl)c(-c3ccccc3)c21` [6-chloro-1-(ethylpropyl)-7-phenylimidazo[4,5-b]pyridin-2-ol], the “AC1.4 Median” value was 0.110†.

Same assay, conditions: detergent treated myofibrils at pCa25%, 500 μM ATP; median value (no †)
“6-chloro-1-(ethylpropyl)-7-(6-methyl(3-pyridyl))imidazo[4,5-b]pyridin-2-ol” was tested, and the “AC1.4 Median” value was 12.164. In the case of “6-chloro-1-(ethylpropyl)-7-(2-pyridyl)imidazo[4,5-b]pyridin-2-ol”, the “AC1.4 Median” value is reported as 1.616. “6-chloro-1-(ethylpropyl)-7-(4-methoxyphenyl)imidazo[4,5-b]pyridin-2-ol” was tested, and the “AC1.4 Median” value was 0.728. In the case of `CC(C)(CO)n1c(O)nc2ncc(Cl)c(-c3ccc(F)cc3)c21` [6-chloro-7-(4-fluorophenyl)-1-(2-hydroxy-tert-butyl)imidazo[4,5-b]pyridin-2-ol], the “AC1.4 Median” value is reported as 0.760. In the case of “6-chloro-7-(2-chloro-4-methylphenyl)-1-(ethylpropyl)imidazo[4,5-b]pyridin-2-ol”, the “AC1.4 Median” value is reported as 0.587. For `CC[C@@H](CO)n1c(O)nc2ncc(F)c(-c3ccc(Cl)cc3)c21` [1-((1S)-1-ethyl-2-hydroxyethyl)-7-(4-chlorophenyl)-6-fluoroimidazo[4,5-b]pyridin-2-ol], the “AC1.4 Median” value was 2.643. With `CC[C@@H](n1c(O)nc2ncc(Cl)c(-c3ccc(F)cn3)c21)C(C)(C)O` [1-((1R)-1-ethyl-2-hydroxy-2-methylpropyl)-6-chloro-7-(5-fluoro(2-pyridyl))imidazo[4,5-b]pyridin-2-ol] the “AC1.4 Median” value was 8.386. `CC[C@@H](CO)n1c(O)nc2ncc(-c3ccc(F)cc3)c(-c3ccc(F)cc3)c21` [1-((1S)-1-ethyl-2-hydroxyethyl)-6,7-bis(4-fluorophenyl)imidazo[4,5-b]pyridin-2-ol] was tested, and the “AC1.4 Median” value was 17.720. With “6-chloro-1-(ethylpropyl)-7-[2-(methoxymethyl)phenyl]imidazo[4,5-b]pyridin-2-ol” the “AC1.4 Median” value was 3.588. For `CC[C@H](COC)n1c(O)nc2ncc(Cl)c(-c3ccc(F)cc3)c21` [1-[(1R)-1-(methoxymethyl)propyl]-6-chloro-7-(4-fluorophenyl)imidazo[4,5-b]pyridin-2-ol], the “AC1.4 Median” value was 0.249. With “6-chloro-1-(ethylpropyl)-7-(2-methyl(1,2,3,4-tetraazol-5-yl))imidazo[4,5-b]pyridin-2-ol” the “AC1.4 Median” value was 6.404. “6-chloro-1-(ethylpropyl)-7-(2-fluoro-4-methoxyphenyl)imidazo[4,5-b]pyridin-2-ol” was tested, and the “AC1.4 Median” value was 0.942. For “6-chloro-1-(ethylpropyl)-7-pyrazol-3-ylimidazo[4,5-b]pyridin-2-ol”, the “AC1.4 Median” value was 26.881. `CC[C@@H](CO)n1c(O)nc2ncc(Cl)c(-c3ccccc3)c21` [1-((1S)-1-ethyl-2-hydroxyethyl)-6-chloro-7-phenylimidazo[4,5-b]pyridin-2-ol] was tested, and the “AC1.4 Median” value was 1.474. “6-chloro-7-(5-chloro(2-pyridyl))-1-(methylethyl)imidazo[4,5-b]pyridin-2-ol” was tested, and the “AC1.4 Median” value was 1.781. `C[C@@H](CO)n1c(O)nc2ncc(Cl)c(-c3ccc(Cl)cc3)c21` [1-((1S)-2-hydroxy-isopropyl)-6-chloro-7-(4-chlorophenyl)imidazo[4,5-b]pyridin-2-ol] was tested, and the “AC1.4 Median” value was 1.260. “6-chloro-1-(ethylpropyl)-7-(3-pyridyl)imidazo[4,5-b]pyridin-2-ol” was tested, and the “AC1.4 Median” value was 8.030. `CC[C@@H](CO)n1c(O)nc2ncc(Cl)c(-c3ccc(Cl)cn3)c21` [1-((1S)-1-ethyl-2-hydroxyethyl)-6-chloro-7-(5-chloro(2-pyridyl))imidazo[4,5-b]pyridin-2-ol] was tested, and the “AC1.4 Median” value was 9.592. In the case of `CCC(CC)n1c(O)nc2ncc(Cl)c(-c3ccccc3C(=O)O)c21` [2-[6-chloro-1-(ethylpropyl)-2-hydroxyimidazo[4,5-b]pyridin-7-yl]benzoic acid], the “AC1.4 Median” value is reported as 30.881. With “6-chloro-1-(ethylpropyl)-7-(5-fluoro(3-pyridyl))imidazo[4,5-b]pyridin-2-ol” the “AC1.4 Median” value was 4.428. In the case of `CCC(CC)n1c(O)nc2ncc(Cl)c(-c3cccc(S(C)(=O)=O)c3)c21` [1-[6-chloro-1-(ethylpropyl)-2-hydroxyimidazo[4,5-b]pyridin-7-yl]-3-(methylsulfonyl)benzene], the “AC1.4 Median” value is reported as 38.633. In the case of `CC[C@@H](CO)n1c(O)nc2ncc(Cl)c(-c3ccc(F)cn3)c21` [1-((1S)-1-ethyl-2-hydroxyethyl)-6-chloro-7-(5-fluoro(2-pyridyl))imidazo[4,5-b]pyridin-2-ol], the “AC1.4 Median” value is reported as 7.549. For `C[C@@H](CO)n1c(O)nc2ncc(Cl)c(-c3ccc(F)cc3)c21` [1-((1S)-2-hydroxy-isopropyl)-6-chloro-7-(4-fluorophenyl)imidazo[4,5-b]pyridin-2-ol], the “AC1.4 Median” value was 2.016. With `CC[C@@H](CO)n1c(O)nc2ncc(Cl)c(-c3ccsc3)c21` [1-((1S)-1-ethyl-2-hydroxyethyl)-6-chloro-7-(3-thienyl)imidazo[4,5-b]pyridin-2-ol] the “AC1.4 Median” value was 0.827. For “3-[6-chloro-1-(ethylpropyl)-2-hydroxyimidazo[4,5-b]pyridin-7-yl]benzenecarbonitrile”, the “AC1.4 Median” value was 3.336. For `COCC(COC)n1c(O)nc2ncc(Cl)c(-n3cccn3)c21` [6-chloro-1-[2-methoxy-1-(methoxymethyl)ethyl]-7-pyrazolylimidazo[4,5-b]pyridin-2-ol], the “AC1.4 Median” value was 27.9068. With “6-chloro-1-(ethylpropyl)-7-[4-(methoxymethyl)phenyl]imidazo[4,5-b]pyridin-2-ol” the “AC1.4 Median” value was 34.746. For “2-[6-chloro-1-(ethylpropyl)-2-hydroxyimidazo[4,5-b]pyridin-7-yl]benzenecarbonitrile”, the “AC1.4 Median” value was 2.886. With “6-chloro-1-(ethylpropyl)-7-pyrazolylimidazo[4,5-b]pyridin-2-ol” the “AC1.4 Median” value was 0.3235.
